Measurements as given in paper PMC10180488, “Novel Derivatives of Eugenol as a New Class of PPARγ Agonists in Treating Inflammation: Design, Synthesis, SAR Analysis and In Vitro Anti-Inflammatory Activity” (Molecules, 2023).
Several values for one entry are separate records, joined by “and”; a condition that tells them apart may be missing. Equal entries are not always repeated.

Experiments:
human PPARγ- LBD = biological target: T1, human PPARγ- LBD (Homo sapiens, UniProt P37231); assay: Lanthascreen TR-FRET PPARγ competitive binding assay; conditions: for IC50: Lanthascreen TR-FRET competitive binding; for Raw Data / Raw Data - Background: TR-FRET
T1 construct: a mixture of a human PPARγ- LBD labelled with glutathione S-transferase (GST)
T1 sequence (P37231 238-503 limits assumed): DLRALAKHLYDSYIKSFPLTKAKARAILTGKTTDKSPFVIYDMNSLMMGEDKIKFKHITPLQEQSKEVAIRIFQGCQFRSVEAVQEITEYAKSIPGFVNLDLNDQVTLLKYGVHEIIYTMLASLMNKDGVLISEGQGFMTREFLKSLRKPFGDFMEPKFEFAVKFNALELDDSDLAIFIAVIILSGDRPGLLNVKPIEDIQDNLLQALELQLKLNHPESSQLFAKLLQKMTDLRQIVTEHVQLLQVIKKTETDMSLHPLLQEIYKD
Method: Using the Lanthasreen TR-FRET assay, the synthesized compounds were first preliminary tested for the PPARγ binding affinity. […] A chemical under test displaces the tracer from PPAR-LBD, which lowers the TR-FRET ratio and decreases the FRET signal Figure 8 [33].
A multimode low-volume proxy plate reader was used to read the plates after one hour of incubation. Then, a mixture of a human PPARγ- LBD labelled with glutathione S-transferase (GST), a fluorescent small pan-PPAR ligand (FluormoneTM Pan-PPAR Green), and terbium-labeled anti-GST antibody was added.

egg albumin = egg albumin (Gallus gallus, UniProt P01012); assay: Albumin denaturation assay; type: biochemical, hen; conditions: mean ± SD (n = 3), read-out: Percentage inhibition of denaturation of albumin
Chain of egg albumin (P01012 2-386): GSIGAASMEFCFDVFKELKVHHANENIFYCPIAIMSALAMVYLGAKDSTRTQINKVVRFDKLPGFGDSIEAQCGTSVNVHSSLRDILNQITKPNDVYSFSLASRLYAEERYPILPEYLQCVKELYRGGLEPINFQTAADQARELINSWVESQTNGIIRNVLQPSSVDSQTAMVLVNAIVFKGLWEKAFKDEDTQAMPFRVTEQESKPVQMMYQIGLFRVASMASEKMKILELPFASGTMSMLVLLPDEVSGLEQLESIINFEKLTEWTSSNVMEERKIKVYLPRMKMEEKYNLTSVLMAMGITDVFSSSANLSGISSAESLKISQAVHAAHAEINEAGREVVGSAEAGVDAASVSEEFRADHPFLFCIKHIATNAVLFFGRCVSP
Method: Inflammation is accompanied by protein denaturation. Tissue protein denaturation is a well-established cause of Inflammatory illnesses. Inflammatory disorders including rheumatoid arthritis, diabetes, and cancer have been linked to the denaturation of proteins. The ability of a substance to stop proteins from becoming denaturized has a role in the prevention of inflammatory disorders. […] Denaturation of proteins is accomplished by keeping the reaction mixture in a water bath at 70 °C for […].
Minor modifications were made to Mizushima and Kobayashi’s and Sakat et al. methodologies. The reaction mixture containing 0.2 mL of egg albumin (from a fresh hen’s egg) is mixed with 2.8 mL of phosphate-buffered saline (PBS, pH 6.4) and 2 mL of synthesized compounds in varying concentrations. The mixture was then heated at 70 °C for 5 min after being incubated at 37 °C for approximately 15–20 min. After cooling, their absorbance was measured at 660 nm spectrometrically. Three duplicates of the experiment were carried out. […] Percentage inhibition = (OD control − OD sample/OD control) × 100

[1] = tested on: human red blood cells (HRBC); assay: HRBC membrane stabilization method; conditions: for HRBC membrane stabilization (percentage protection against HRBC lysis): mean ± SD (n = 3); for IC50: Homo sapiens, Erythrocyte, read-out: IC50 Values, HRBC membrane stabilization method
Method: The principle of this procedure is to stabilize the membrane of human red blood cells by hypotonic membrane lysis. […] Lysosomal enzyme levels typically decrease as the HRBC membrane is stabilized.
The packed cells in this blood solution were separated after centrifugation at 3000 rpm [41]. The packed cells were cleaned using an isosaline solution, and then, isosaline was used to prepare a 10% v/v suspension. This HRBC suspension was employed to estimate its anti-inflammatory properties. Different concentrations of the synthesized compounds and the reference standard were each combined with 1 mL of phosphate buffer (pH 7.4), 2 mL of hyposaline, and 0.5 mL of HRBC solution. A total of 2.0 mL of distilled water was utilized as the control. The assay mixtures were all centrifuged at 3000 rpm after 30 min of incubation at 37°C. The following formula was used to determine the percentage of stabilized HRBC membranes. Percentage protection= 100 − (OD sample/OD control) × 100

SMILES | IC50 (human PPARγ- LBD) [µM] | Raw Data (human PPARγ- LBD; 0.0000512 µM) [RLU] | Raw Data - Background (human PPARγ- LBD; 0.0000512 µM) [RLU] | Raw Data (human PPARγ- LBD; 0.000256 µM) [RLU] | Raw Data - Background (human PPARγ- LBD; 0.000256 µM) [RLU] | Raw Data (human PPARγ- LBD; 0.00128 µM) [RLU] | Raw Data - Background (human PPARγ- LBD; 0.00128 µM) [RLU] | Raw Data (human PPARγ- LBD; 0.0064 µM) [RLU] | Raw Data - Background (human PPARγ- LBD; 0.0064 µM) [RLU] | Raw Data (human PPARγ- LBD; 0.032 µM) [RLU] | Raw Data - Background (human PPARγ- LBD; 0.032 µM) [RLU] | Raw Data (human PPARγ- LBD; 0.16 µM) [RLU] | Raw Data - Background (human PPARγ- LBD; 0.16 µM) [RLU] | Raw Data (human PPARγ- LBD; 0.8 µM) [RLU] | Raw Data - Background (human PPARγ- LBD; 0.8 µM) [RLU] | Raw Data (human PPARγ- LBD; 4 µM) [RLU] | Raw Data - Background (human PPARγ- LBD; 4 µM) [RLU] | Raw Data (human PPARγ- LBD; 20 µM) [RLU] | Raw Data - Background (human PPARγ- LBD; 20 µM) [RLU] | Raw Data (human PPARγ- LBD; 100 µM) [RLU] | other results
C=CCc1ccc(OCC(=O)Nc2ccccc2)c(OC)c1 [Compound 1a, 2-(4-Alyl-2-methoxyphenoxy)-N-phenylacetamide] | 29.8 | 1.916 | 1.681 | 1.915 | 1.68 | 1.916 | 1.681 | 1.92 | 1.685 | 2.058 | 1.823 | 1.971 | 1.736 | 1.899 | 1.664 | 1.717 | 1.483 | 1.047 | 0.813 | 0.245 | Raw Data - Background (human PPARγ- LBD; 100 µM): 0.01 RLU; inhibition at 6.25 µM (egg albumin): 1.67 ± 0.37%; inhibition at 12.5 µM (egg albumin): 5.32 ± 0.37%; inhibition at 25 µM (egg albumin): 10.2 ± 0.24%; inhibition at 50 µM (egg albumin): 14.5 ± 0.43%; inhibition at 100 µM (egg albumin): 19.2 ± 0.24%; inhibition at 200 µM (egg albumin): 25.1 ± 0.31%; inhibition at 400 µM (egg albumin): 32.3 ± 0.37%; HRBC membrane stabilization (percentage protection against HRBC lysis) ([1]; 6.25 µM): 4.79 ± 0.48%; HRBC membrane stabilization (percentage protection against HRBC lysis) ([1]; 12.5 µM): 10.45 ± 0.38%; HRBC membrane stabilization (percentage protection against HRBC lysis) ([1]; 25 µM): 21.40 ± 0.36%; HRBC membrane stabilization (percentage protection against HRBC lysis) ([1]; 50 µM): 28.78 ± 0.66%; HRBC membrane stabilization (percentage protection against HRBC lysis) ([1]; 100 µM): 37.88 ± 0.28%; HRBC membrane stabilization (percentage protection against HRBC lysis) ([1]; 200 µM): 47.23 ± 0.48%; HRBC membrane stabilization (percentage protection against HRBC lysis) ([1]; 400 µM): 60.88% and 60.88 ± 0.36%; IC50 [1]: 79.5 µM
C=CCc1ccc(OCC(=O)Nc2ccccc2C)c(OC)c1 [Compound 1c, 2-(4-Allyl-2-methoxyphenoxy)-N-(o-tolyl)acetamide] | 8.2 | 1.881 | 1.647 | 1.88 | 1.646 | 1.88 | 1.637 | 1.886 | 1.651 | 1.902 | 1.657 | 1.994 | 1.76 | 1.991 | 1.756 | 1.33 | 1.096 | 0.1617 | 0.02704 | 0.06866 | Raw Data - Background (human PPARγ- LBD; 100 µM): -0.146 RLU; inhibition at 6.25 µM (egg albumin): 1.77 ± 0.37%; inhibition at 12.5 µM (egg albumin): 5.32 ± 0.37%; inhibition at 25 µM (egg albumin): 8.42 ± 0.24%; inhibition at 50 µM (egg albumin): 13.8 ± 0.43%; inhibition at 100 µM (egg albumin): 19.2 ± 0.24%; inhibition at 200 µM (egg albumin): 27.26 ± 0.24%; inhibition at 400 µM (egg albumin): 34.03 ± 0.31%; HRBC membrane stabilization (percentage protection against HRBC lysis) ([1]; 6.25 µM): 6.21 ± 0.38%; HRBC membrane stabilization (percentage protection against HRBC lysis) ([1]; 12.5 µM): 14.26 ± 0.38%; HRBC membrane stabilization (percentage protection against HRBC lysis) ([1]; 25 µM): 24.78 ± 0.38%; HRBC membrane stabilization (percentage protection against HRBC lysis) ([1]; 50 µM): 29.08 ± 0.46%; HRBC membrane stabilization (percentage protection against HRBC lysis) ([1]; 100 µM): 40.65 ± 0.28%; HRBC membrane stabilization (percentage protection against HRBC lysis) ([1]; 200 µM): 50.92 ± 0.48%; HRBC membrane stabilization (percentage protection against HRBC lysis) ([1]; 400 µM): 62.54% and 62.54 ± 0.36%; IC50 [1]: 79.7 µM
